Activity calls are given as the source filed them. The calls are words filed in the database; no cut-off is given here.
Test system: Escherichia coli
Assay: Induction of outer membrane permeabilization in Escherichia coli ATCC 25922 at 1 to 64 uM by NPN-dye based assay
Assay type: organism-based

**Q.** With H-IRPIIRPIIRPIIRPIIRPIIRPIIRPI-NH2 as the substance, how does the Activity read?
**A.** The Activity was “Active”.
